Results taken from publication PMC12385147, “Discovery of Novel 2-Substituted Aniline Pyrimidine Based Derivatives as Potent Mer/c-Met Dual Inhibitors with Improvement Bioavailability” (Biomolecules, 2025).

Tests used:
[1] = cited from earlier work
[2] = cited from earlier work; remark: listed apart in the source
[3] = cited from earlier work; remark: listed apart in the source
[4] = test system: xenograft models; parameters: method as in PMID 29554921; settings: cited from earlier work
[5] = test system: HepG2; test: Antiproliferation CCK-8 assay, HepG2; format: cell-based; settings: Homo sapiens, CCK-8, 72 h
Method: (§1) The HepG2, MDA-MB-231, and HCT116 cell lines were derived from our own laboratory (the laboratory of our collaborator, Dr. Xiaolei Zhou, at College of Food Science and Biology in Hebei University of Science and Technology). The antiproliferative activities were assessed using the CCK-8 assay. Cell viability was measured according to the manufacturer’s instructions for the Cell Counting Kit-8 (Meilunbio, Dalian, China). In this assay, 2.5 × 10^3 cells per well were seeded into 96-well plates.
(§2) After an initial 12 h incubation, cancer cells were exposed to varying concentrations of compound 17c for 72 h. Following CCK-8 solution addition and 2 h incubation, the absorbance at 450 nm was measured using a BioTek Synergy HTX microplate reader. Experiments included triplicate wells with three independent replicates. The IC50 values for compound 17c were derived from an analysis of the dose–response curves in GraphPad PRISM 9.5.

[6] = test system: HCT116; test: Antiproliferation CCK-8 assay, HCT116; format: cell-based; settings: Homo sapiens, HCT-116; CCK-8, 72 h; read-out: IC50 HCT116
Method: as §1, §2

[7] = test system: MDA-MB-231; test: Antiproliferation CCK-8 assay, MDA-MB-231; format: cell-based; settings: Homo sapiens, CCK-8, 72 h
Method: as §1, §2

CCCCNc1ncc2c(-c3ccc(F)cc3)nn(CC3CCC(N)CC3)c2n1 (stereo not shown) [UNC569]
human microsomal t1/2 [1]: < 15 min | oral bioavailability F [2]: < 10%

CCCCNc1ncc2c(-c3ccc(CN4CCN(C)CC4)cc3)cn([C@H]3CC[C@H](O)CC3)c2n1 [UNC2025]
t1/2 in human hepatocytes [3]: 68 min

CCCCNc1ncc(-c2ccc(CN3CCOCC3)cn2)c(N[C@H]2CC[C@H](O)CC2)n1 [UNC2250]
tumor volume reduction vs. control [4]: ~ 60%

COc1cc2nccc(Oc3ccc(NC(=O)C4(C(=O)Nc5ccc(F)cc5)CC4)cc3)c2cc1OC [cabozantinib, reference compound]
IC50 [5]: 7.87 ± 2.11 µM | IC50 [6]: 15.6 ± 4.39 µM | IC50 [7]: 4.62 ± 0.54 µM
